Experimental data from patent publication US20140056964A1, “GRANZYME B INHIBITOR COMPOSITIONS, METHODS AND USES FOR PROMOTING WOUND HEALING” (THE UNIVERSITY OF BRITISH COLUMBIA, priority 2010, published 2014).
Entries after “also recorded” stand apart in the source; their conditions may differ. One block for each compound: values may come before it.

Columns and labels:
[1] = biological target: T1, Granzyme B (Homo sapiens, UniProt P10144); assay: continuous colorimetric Granzyme B inhibition assay with substrate Ac-IEPD-pNA; type: biochemical; conditions: substrate Ac-IEPD-pNA 20 μM, 37° C., pNA release at 405 nm
T1 sequence (P10144 21-247): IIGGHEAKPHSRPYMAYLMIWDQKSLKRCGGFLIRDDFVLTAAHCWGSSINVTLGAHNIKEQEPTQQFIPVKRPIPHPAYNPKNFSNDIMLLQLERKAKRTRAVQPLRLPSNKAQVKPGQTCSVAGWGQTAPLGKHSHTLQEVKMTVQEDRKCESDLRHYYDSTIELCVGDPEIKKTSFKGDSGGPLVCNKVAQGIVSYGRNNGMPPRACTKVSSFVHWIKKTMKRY
Procedure: Small molecule libraries (ZINC—Irwin J J and Shoichet B K, 2005. J. Chem Inf Model 4591:177-182; NCI—Voigt, J. H. et al. J. Chem. Inf Comput. Sci. 2001, 41, 702-712) were screened in silico for candidate Granzyme B inhibitory compounds. Several candidate small molecule inhibitors were identified and subjected to an in vitro Granzyme B inhibition assay. More specifically, a continuous colormetric assay for Granzyme B activity was carried out with the substrate Ac-IEPD-pNA. Briefly, 8 ug/ml Granzyme B, 20 μM substrate, and increasing concentrations of the inhibitor of interest was incubated in a final reaction volume of 50 ul. The reaction buffer consisted of 50 mM HEPES pH 7.5, 10% sucrose, 0.1% CHAPS and 5 mM DTT and reactions were carried out at 37° C. pNA release and Granzyme B inhibition was monitored at 405 nm on a Tecan Safire microplate reader.
As detailed herein and as detailed in Tables A and B herein, candidate inhibitors, and IC50 concentration obtained from the inhibition assay are set out below.

[2] = biological target: T1, Granzyme B; assay: TGF-β release assay from proteoglycan/TGF-β complexes (Western blot of supernatants); type: biochemical; conditions: for release of TGF-β from betaglycan/TGF-β complexes by Granzyme B: 20 ug/ml betaglycan, 10 ng TGF-β, 24 h at RT
Procedure: Cytokine release was assessed in supernatants using Western blotting. TGF-β release assays were carried out using a method similar to that previously described for the MMPs (Imai et al. 1997). Briefly, decorin, biglycan and betaglycan (15 μg/mL) were coated onto 48 well tissue culture plastic plates and allowed to incubate overnight at 4° C. in PBS, pH 7.4. After blocking with 1% bovine serum albumin, 20 ng of active TGF-β1 per well (Peprotech Inc, Rocky Hill, N.J.) was added in DPBS containing calcium and magnesium (#14040, Invitrogen, Carlsbad, Calif.) for 5 h at RT. Granzyme B, with or without DCI, was then added to the wells. After 24 h, supernatants were removed, denatured, and run on a 15% SDS-PAGE gel. Once transferred to a nitrocellulose membrane and blocked with 10% skim milk, the membrane was probed using a rat anti-human TGF-β1 antibody (1:200, BD Biosciences, Franklin Lakes, N.J.) and IRDye® 800 conjugated affinity purified anti-Rat IgG (1:3000, Rockland Inc, Gilbertsville, Pa.). Bands were imaged using the Odyssey Infrared Imaging System (LI-COR Biotechnology, Lincoln, Nebr.). In this Example, 20 ug/ml betaglycan was coated onto 48 well plates and incubated with 10 ng of TGF-β. Excess TGF-β was washed off the plate and betaglycan/TGF-β complexes were incubated with Granzyme B+/− inhibitors for 24 h at RT. Supernatants (containing released TGF-β) were collected and Western blotted for TGF-β. There is little non-specific dissociation of TGF-β into supernatants in the absence of Granzyme B (2; see FIG. 16). TGF-β is released by Granzyme B after 24 h of incubation (4; see FIG. 16).

[3] = biological target: T2, purified human Granzyme B (Homo sapiens, UniProt P10144); assay: proteoglycan cleavage assay (recombinant decorin, biglycan, betaglycan incubated with Granzyme B +/- inhibitor, SDS-PAGE); type: biochemical; conditions: for Granzyme B cleavage of decorin: 24 h, 30 ul, Coomassie Blue stain
T2 construct: purchased Axxora, San Diego, Calif
T2 sequence (P10144 21-247): as above
Procedure: For ECM cleavage assays, Granzyme B and/or the inhibitor 3,4-dichloroisocoumarin (DCI), were incubated for 4 and 24 hours at room temperature, with decorin, biglycan or soluble betaglycan and visualized by Ponceau staining. Cleavage fragments were subjected to Edman degradation for cleavage site identification.
Proteoglycan cleavage assays. The recombinant human PGs, decorin (0.5 μg, Abnova, Walnut, Calif.), biglycan and betaglycan (1.5-5 ug, R&D Systems, Minneapolis, Minn.) were incubated at room temperature for 24 h with 25-500 nM purified human Granzyme B (Axxora, San Diego, Calif.), in 50 mM Tris buffer, pH 7.4. For inhibitor studies, Granzyme B was incubated in the presence or absence of 200 μM of the serine protease inhibitor 3,4-dichloroisocoumarin (DCI; Santa Cruz Biotechnology Inc, Santa Cruz, Calif.) or inhibitor solvent control, dimethyl sulfoxide (DMSO; Sigma-Aldrich, St Louis, Mo.) for 4 h or 24 h. After incubation, proteins were denatured, separated on a 10% SDS-polyacrylamide gel and transferred to a nitrocellulose membrane. Ponceau stain (Fisher Scientific, Waltham, Mass.) was used to detect cleavage fragments.
Samples were run on a 10% gel, imaged with Ponceau stain and scanned.
In this Example, incubations were performed at RT for 24 h in a total reaction volume of 30 ul. Samples were run on a 10% gel and imaged by Coomassic Blue stain. With reference to FIG. 17, the asterisk=full length protein.
Samples were run on a 10% gel, imaged with Ponceau stain and scanned. […] DMSO vehicle control was not included due to redundancy. Asterisk=full length protein; Arrow=cleavage fragments. Obstruction in Granzyme B/Betaglycan lane affecting first 2 cleavage fragments.

[4] = biological target: T1, Granzyme B; assay: fibronectin cleavage by Granzyme B +/- inhibitor; type: biochemical; conditions: inhibitor at 3.12 nM
Procedure: As shown in FIGS. 21A and B herein, incubations as described herein were performed with fibronectin (FN) and Granzyme B, both in the absence of inhibitor Willoughby 20 and in the presence of inhibitor Willoughby 20. Compound Willoughby 20 inhibits Granzyme B cleavage of FN at 3.12 nM.

[5] = biological target: T1, Granzyme B; assay: cleavage of endogenous HCASMC-derived ECM (fibronectin, decorin Western blot) by 100 nM Granzyme B +/- inhibitor; type: biochemical; conditions: inhibitor at 150 μM
Procedure: More specifically, as it relates to FIG. 18, to synthesize endogenous ECM, human coronary artery smooth muscle cells were seeded in 6 well plates and incubated at confluency for 7 days in serum starvation media (SMGM+0.2% FBS). Cells were removed from the plates by incubation with 0.25M Ammonium Hydroxide for 20 min. This treatment removes cells while leaving the surrounding extracellular matrix intact. Subsequently, 100 nM Granzyme B and the inhibitor of interest were incubated on the endogenous ECM for 24 h. Supernatants from the plates (containing cleavage fragments) were run on an SDS-PAGE gel and Western blotted for fibronectin or decorin. DMSO solvent control was not included due to redundancy. Asterisk=full length protein; Arrow=cleavage fragments, star denotes full length. […] Cells were removed from the plates by incubation with 0.25M Ammonium Hydroxide for 20 min. This treatment removes cells while leaving the surrounding extracellular matrix intact. Subsequently, 100 nM Granzyme B and the inhibitor of interest were incubated on the endogenous ECM for 24 h. Supernatants from the plates (containing cleavage fragments) were run on to an SDS-PAGE gel and Western blotted for fibronectin or decorin. DMSO solvent control was not included due to redundancy. Asterisk=full length protein; Arrow=cleavage fragments, star denotes full length.

[6] = tested on: human coronary artery smooth muscle cells (HCASMC); assay: Human coronary artery smooth muscle cell TGF-β bioavailability assay (SMAD-3 / Erk phosphorylation); type: cell-based; conditions: supernatants of betaglycan release assay (Granzyme B +/- DCI) on cells for 16 h
Procedure: To determine if the TGF-β released by Granzyme B was active, supernatants from the above release assay were incubated on human coronary artery smooth muscle cells (HCASMC) and SMAD/Erk activation was examined by Western blotting. For bioavailability assays, HCASMCs (Clonetics/Lonza, Walkersville, Md.) at passage 3-5 were seeded in 6 well plates in smooth muscle cell growth media (SmGM, Clonetics) +5% fetal bovine serum (FBS, Invitrogen) and grown to confluence. At this time, cells were quiesced by serum removal for 24 h, after which time 150 μl of release assay supernatants (as described above) or a 10 ng TGF-β positive control were added to the cells for 16 h. Cell lysates were assessed by SDS-PAGE/Western blotting for phosphorylated-Erk 1/2 (p-Erk1/2; 1:1000, Cell Signaling Technology, Danvers, Mass.), total Erk 1/2 (t-Erk1/2; 1:1000, Cell Signaling Technology), phosphorylated-SMAD3 (p-SMAD3; 1:2000, Epitomics, Burlingame, Calif.), total SMAD3 (t-SMAD3; 1:500, BD Biosciences) and the loading controls β-actin (1:5000, Sigma-Aldrich) or β-tubulin (1:3000, Millipore, Billerica, Mass.). Secondary IRDye® 800 conjugated antibodies (1:3000, Rockland Inc) were utilized and imaged with the Odyssey Infrared Imaging System (LI-COR Biotechnology). […]

IC50 [1]: ~320 µM
SMILES: O=C(Nc1ccc(Cl)cc1Cl)/C(O)=C\C(=O)[C@@H]1CCOC1=O (stereo in doubt) [ZINC05605947]

IC50 [1]: ~250 µM
SMILES: CC(=O)c1ccccc1NC(=O)/C(O)=C(/C(=O)c1ccccc1-c1ccccc1)[C@@H]1OC(=O)c2ccccc21 [ZINC05723646]

IC50 [1]: ~40 µM | Granzyme B cleavage of betaglycan ([3]; inhibitor at 50 μM, RT, 4 h): partially inhibits | Granzyme B cleavage of betaglycan ([3]; inhibitor at 100 μM, RT, 4 h): completely
SMILES: Cc1ccc(NC(=O)/C(O)=C(/C(=O)/C=C/c2ccccc2)C2OC(=O)c3ccccc32)c(C)c1 (stereo not drawn) [ZINC05723787]

IC50 [1]: ~270 µM
SMILES: Cc1ccc(NC(=O)/C(O)=C(/C(=O)c2ccc3ccccc3c2)[C@@H]2OC(=O)c3ccccc32)cc1C [ZINC05723503]

IC50 [1]: ~25 µM | decorin cleavage by Granzyme B [5]: effective | Granzyme B cleavage of betaglycan ([3]; inhibitor at 100 μM, RT, 4 h): does not inhibit
SMILES: CC(=O)c1ccc(NC(=O)/C(O)=C(\C(=O)/C=C\c2ccccc2)[C@@H]2OC(=O)c3ccccc32)cc1 [ZINC05723764]

Continued, compound first:

SMILES: CC[C@H](C)[C@H](NC(=O)Cc1csc2ccccc12)C(=O)N[C@H]1CCc2cccc3c2N(C1=O)[C@H](C(=O)NCc1c[nH]nn1)C3 [Willoughby 20, Azepino[3,2,1-hi]indole-2-carboxamide, 5-[[(2S,3S)-2-[(2-benzo[b]thien-3-ylacetyl)amino]-3-methyl-1-oxopentyl]amino]-1,2,4,5,6,7-hexahydro-4-oxo-N-(1H-1,2,3-triazol-5-ylmethyl)-, (2S,5S)-]
IC50 [1]: ~3.1 µM | release of TGF-β from betaglycan/TGF-β complexes by Granzyme B [2]: inhibited | Granzyme B cleavage of decorin ([3]; RT): Inhibits | Granzyme B cleavage of decorin ([3]; RT, listed as compound 20): prevented | Granzyme B cleavage of betaglycan ([3]; room temperature, 24 hours, 30 μl, Ponceau stain): inhibits | Granzyme B cleavage of fibronectin (FN) [4]: inhibits

SMILES: CCOc1ccccc1NC(=O)/C(O)=C(/C(=O)c1ccc2ccccc2c1)[C@@H]1OC(=O)c2ccccc21 [ZINC05398428]
IC50 [1]: ~255 µM

SMILES: CC(=O)CCC(=O)CC(=O)CCC(=O)Nc1cc(Cl)ccc1Cl [ZINC05316859]
IC50 [1]: ~250 µM

SMILES: O=C1CCC(=O)/C(=C(/O)CCC(=O)Nc2cccc(Cl)c2)C1 [ZINC05315460]
IC50 [1]: ~100 µM

SMILES: Cc1ccc(NC(=O)/C(O)=C(/C(=O)c2ccc3ccccc3c2)[C@H]2OC(=O)c3ccccc32)c(C)c1 (stereo in doubt) [ZINC05316154]
IC50 [1]: ~195 µM

SMILES: O=c1oc(Cl)c(Cl)c2ccccc12 [DCI, 3,4-dichloroisocoumarin]
release of TGF-β from betaglycan/TGF-β complexes by Granzyme B [2]: partially inhibited | release of TGF-β from decorin, biglycan and betaglycan by Granzyme B ([2]; 24 h incubation, Western blot of supernatants): not released; also recorded: inhibited; also recorded: no release evident | Granzyme B-mediated cleavage of decorin, biglycan and betaglycan ([3]; 200 μM DCI, 4 h and 24 h, room temperature, Ponceau stain): effectively inhibited | TGF-β signaling (SMAD-3 and Erk 1/2 phosphorylation) in HCASMC [6]: limited TGF-β signaling

SMILES: COC(=O)CC/C(O)=C(/C(=O)CCC(=O)Nc1ccc(Cl)cc1Cl)C(=O)OC [ZINC05317216]
IC50 [1]: ~50 µM
